# In PubChem BioAssay AID1963435 (Molecular Pharmacology Branch, DTP, NCI, 2024):
# Test system: PANC-1 complex spheroid growth, percent test/control
# Experiment: Anticancer human tumor PANC-1 cell line growth inhibition [Asc];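 also: spheroids exposed to agents for 7 days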;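 as to viability, T/C: percent viability relative to DMSO vehicle wells taken as 100%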
# Conditions: for IC50: curve of first compound; for viability, T/C: stronger effect = lower value
# How it was run: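 Tumor cells were grown as multicellular spheroids with stromal HUVEC and mesenchymal stem cells and treated singly or in combination. Concentrations fell in half-log steps from the clinical Cmax, or from 10 microM where none was known.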
# [1] = second compound 0.00316 µM, first compound 0.00316 µM
# [2] = second compound 0.00316 µM, first compound 0.01 µM
# [3] = second compound 0.00316 µM, first compound 0.0316 µM
# [4] = second compound 0.00316 µM, first compound 0.1 µM
# [5] = second compound 0.00316 µM, first compound 0.316 µM
# [6] = second compound 0.00316 µM, first compound 1 µM
# [7] = second compound 0.01 µM, first compound 0.00316 µM
# [8] = second compound 0.01 µM, first compound 0.01 µM
# [9] = second compound 0.01 µM, first compound 0.0316 µM
# [10] = second compound 0.01 µM, first compound 0.1 µM
# [11] = second compound 0.01 µM, first compound 0.316 µM
# [12] = second compound 0.01 µM, first compound 1 µM
# [13] = second compound 0.0316 µM, first compound 0.00316 µM
# [14] = second compound 0.0316 µM, first compound 0.01 µM
# [15] = second compound 0.0316 µM, first compound 0.0316 µM
# [16] = second compound 0.0316 µM, first compound 0.1 µM
# [17] = second compound 0.0316 µM, first compound 0.316 µM
# [18] = second compound 0.0316 µM, first compound 1 µM
# [19] = second compound 0.1 µM, first compound 0.00316 µM
# [20] = second compound 0.1 µM, first compound 0.01 µM
# [21] = second compound 0.1 µM, first compound 0.0316 µM
# [22] = second compound 0.1 µM, first compound 0.1 µM
# [23] = second compound 0.1 µM, first compound 0.316 µM
# [24] = second compound 0.1 µM, first compound 1 µM
# [25] = second compound 0.316 µM, first compound 0.00316 µM
# [26] = second compound 0.316 µM, first compound 0.01 µM
# [27] = second compound 0.316 µM, first compound 0.0316 µM
# [28] = second compound 0.316 µM, first compound 0.1 µM
# [29] = second compound 0.316 µM, first compound 0.316 µM
# [30] = second compound 0.316 µM, first compound 1 µM
# [31] = second compound 1 µM, first compound 0.00316 µM
# [32] = second compound 1 µM, first compound 0.01 µM
# [33] = second compound 1 µM, first compound 0.0316 µM
# [34] = second compound 1 µM, first compound 0.1 µM
# [35] = second compound 1 µM, first compound 0.316 µM
# [36] = second compound 1 µM, first compound 1 µM
structure (smiles),measurement,setting,value
CCN1CCN(Cc2ccc(Nc3ncc(F)c(-c4cc(F)c5nc(C)n(C(C)C)c5c4)n3)nc2)CC1 + CNC(C)C(=O)NC1CN(S(=O)(=O)c2cccc(S(=O)(=O)N3CCC4CCC(C(=O)NC(c5ccccc5)c5ccccc5)N4C(=O)C(NC(=O)C(C)NC)C3)c2)CCC2CCC(C(=O)NC(c3ccccc3)c3ccccc3)N2C1=O,IC50,second compound 0.00316 µM,> 1 µM
same,IC50,second compound 0.01 µM,> 1 µM
same,IC50,second compound 0.0316 µM,> 1 µM
same,IC50,second compound 0.1 µM,> 1 µM
same,IC50,second compound 0.316 µM,> 1 µM
same,IC50,second compound 1 µM,> 1 µM
same,"viability, T/C",[1],119%
same,"viability, T/C",[2],108%
same,"viability, T/C",[3],105%
same,"viability, T/C",[4],117%
same,"viability, T/C",[5],129%
same,"viability, T/C",[6],143%
same,"viability, T/C",[7],95.1%
same,"viability, T/C",[8],96.8%
same,"viability, T/C",[9],108%
same,"viability, T/C",[10],116%
same,"viability, T/C",[11],124%
same,"viability, T/C",[12],127%
same,"viability, T/C",[13],96%
same,"viability, T/C",[14],101%
same,"viability, T/C",[15],107%
same,"viability, T/C",[16],112%
same,"viability, T/C",[17],116%
same,"viability, T/C",[18],136%
same,"viability, T/C",[19],102%
same,"viability, T/C",[20],102%
same,"viability, T/C",[21],102%
same,"viability, T/C",[22],97.4%
same,"viability, T/C",[23],107%
same,"viability, T/C",[24],118%
same,"viability, T/C",[25],92.2%
same,"viability, T/C",[26],91.8%
same,"viability, T/C",[27],109%
same,"viability, T/C",[28],105%
same,"viability, T/C",[29],118%
same,"viability, T/C",[30],129%
same,"viability, T/C",[31],98.2%
same,"viability, T/C",[32],98.2%
same,"viability, T/C",[33],99.5%
same,"viability, T/C",[34],96.5%
same,"viability, T/C",[35],109%
same,"viability, T/C",[36],113%
O=C(c1ccc(F)c(F)c1Nc1ccc(I)cc1F)N1CC(O)([C@@H]2CCCCN2)C1 + CNC(C)C(=O)NC1CN(S(=O)(=O)c2cccc(S(=O)(=O)N3CCC4CCC(C(=O)NC(c5ccccc5)c5ccccc5)N4C(=O)C(NC(=O)C(C)NC)C3)c2)CCC2CCC(C(=O)NC(c3ccccc3)c3ccccc3)N2C1=O,IC50,second compound 0.00316 µM,> 1 µM
same,IC50,second compound 0.01 µM,> 1 µM
same,IC50,second compound 0.0316 µM,> 1 µM
same,IC50,second compound 0.1 µM,> 1 µM
same,IC50,second compound 0.316 µM,> 1 µM
same,IC50,second compound 1 µM,> 1 µM
same,"viability, T/C",[1],98.6%
same,"viability, T/C",[2],88.8%
same,"viability, T/C",[3],90.1%
same,"viability, T/C",[4],88%
same,"viability, T/C",[5],90.5%
same,"viability, T/C",[6],84.9%
same,"viability, T/C",[7],104%
same,"viability, T/C",[8],86.1%
same,"viability, T/C",[9],89.5%
same,"viability, T/C",[10],89%
same,"viability, T/C",[11],85.9%
same,"viability, T/C",[12],85.2%
same,"viability, T/C",[13],88.2%
same,"viability, T/C",[14],86.1%
same,"viability, T/C",[15],118%
same,"viability, T/C",[16],93.6%
same,"viability, T/C",[17],86.6%
same,"viability, T/C",[18],87.3%
same,"viability, T/C",[19],101%
same,"viability, T/C",[20],86.4%
same,"viability, T/C",[21],90.7%
same,"viability, T/C",[22],90.3%
same,"viability, T/C",[23],88.4%
same,"viability, T/C",[24],87.3%
same,"viability, T/C",[25],95.2%
same,"viability, T/C",[26],89.5%
same,"viability, T/C",[27],98.9%
same,"viability, T/C",[28],89.9%
same,"viability, T/C",[29],96.8%
same,"viability, T/C",[30],89.3%
same,"viability, T/C",[31],91.4%
same,"viability, T/C",[32],93%
same,"viability, T/C",[33],89.7%
same,"viability, T/C",[34],90%
same,"viability, T/C",[35],90.6%
same,"viability, T/C",[36],91.6%
